This note sets out measurements from patent US9624170B2, “4-(piperrazin-1-yl)-pyrrolidin-2-one compounds as monoacylglycerol lipase (MAGL) inhibitors” (TAKEDA PHARMACEUTICAL COMPANY LIMITED, priority 2013, dated 2017).

The structures appear in SMILES notation.

The first test deals with T1, human MAGL (His-hMAGL) (Homo sapiens, UniProt Q99685).
T1 construct: made in house; host or cells: Escherichia coli BL21(DE3)
T1 sequence (Q99685 1-303): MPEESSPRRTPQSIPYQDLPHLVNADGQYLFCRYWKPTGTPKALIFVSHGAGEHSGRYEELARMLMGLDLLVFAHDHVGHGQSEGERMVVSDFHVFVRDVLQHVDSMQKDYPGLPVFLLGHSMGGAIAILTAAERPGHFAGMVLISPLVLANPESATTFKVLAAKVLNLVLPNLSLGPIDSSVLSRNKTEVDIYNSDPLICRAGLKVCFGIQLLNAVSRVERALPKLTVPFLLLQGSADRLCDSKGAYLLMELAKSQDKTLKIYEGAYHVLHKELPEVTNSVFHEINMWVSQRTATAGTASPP
Briefly: Measurement of MAGL inhibitory activity by absorbance. As to conditions: 10 μM test compound; substrate p-nitrophenyl acetate, absorbance at 405 nm. Type of test: biochemical. The source says: (1) Cloning of Human MGLL Encoding MAGL Protein and Construction of Expression Plasmid
Human MGLL cDNA was obtained by PCR using human ORF Clone (DNAForm; Clone ID: 100004585) as a template. For PCR, two kinds of primers: […]
The obtained PCR product was digested with Bam HI and Not I (Takara Bio Inc.), inserted into the Bam HI/Not I site of pET21HH(V) (pET21a (Novagen) inserted with His x6 and TEV Protease recognition sequence) by using Ligation High (Toyobo Co., Ltd.), and introduced into ECOS™ JM109 (Nippon Gene Co., Ltd.), whereby expression plasmid pET21HH(V)/His-hMGLLv2 for Escherichia coli was constructed. (2) Preparation of Recombinant Polyhistidine Tagged Human MAGL Protein
Recombinant His-hMAGL protein was prepared by transforming ECOS™ Competent E. coli BL21(DE3) (Nippon Gene Co., Ltd.) with the pET21HH(V)/His-hMGLLv2 plasmid prepared above. Escherichia coli obtained by transformation was inoculated to 10 mL of LB medium (1% peptone, 0.5% yeast extract, 0.5% sodium chloride, 0.01% ampicillin), and cultured at 30° C. for 16 hr. […] When the turbidity of the culture medium reached about 500 Klett unit, the culture temperature was lowered to 16° C., isopropyl-β-D-thiogalactopyranoside (IPTG) was added to a final concentration of 1 mM, and the mixture was further cultured for 19 hr. After the completion of culture, the culture medium was centrifuged (4° C., 6,000 rpm, 10 min) to give His-hMAGL expression Escherichia coli. Then, His-hMAGL expression Escherichia coli was suspended in 50 mM Tris-HCl (pH 8.0, 100 ml) containing 1% Triton X-100, 20 mM imidazole, 3 mM DTT, 5 U/mL Benzonase (Merck) and 150 mM NaCl, sufficiently cooled, and subjected to sonication at […]=60%, 15 sec/ON, 30 sec/OFF for 3 min using ¾″ solid type crushed horn of BRANSON Digital Sonifier 450 (Central Scientific Commerce, Inc.). Furthermore, the homogenate was centrifuged (4° C., 15,000 rpm, 15 min) and the supernatant was obtained. As the purification apparatus, AKTA explorer 10s (GE Healthcare Japan Corporation) was used at 4° C. To the obtained supernatant was added 5M NaCl to the final salt concentration of 0.3 M, and the mixture was flown through and adsorbed to 5 mL of Ni-NTA Superflow Cartridges (QIAGEN) equilibrated in advance with buffer A (50 mM Tris-HCl (pH 8.0) containing 0.05% TritonX-100, 1 mM DTT, 300 mM NaCl). The column was sufficiently washed with buffer A containing 20 mM imidazole and His-hMAGL was eluted with buffer A containing imidazole at a final concentration of 250 mM. The eluate was further subjected to gel filtration using HiLoad 26/600 Superdex 200 pg (GE Healthcare Japan Corporation) equilibrated with 50 mM Tris-HCl pH 8.0 containing 10% glycerol, 0.05% TritonX-100, 1 mM DTT, 150 mM NaCl. The eluted fraction was concentrated by Amicon Ultra-15 10K (Merck Millipore) to give purified His-hMAGL protein. The protein concentration was measured by BCA Protein Assay Kit (Thermo Fisher Scientific) using BSA as the standard.
(3) Measurement of MAGL Inhibitory Activity
His-hMAGL obtained above was diluted with enzyme reaction buffer (10 mM Tris-HCl, pH 7.5, 1 mM EDTA, 0.1 (w/v) % Triton X-100) to a concentration of 60 ng/mL. […] Thereafter, to each well was added 750 μM p-nitrophenyl acetate (Wako Pure Chemical Industries, Ltd.) by 5 μL, and the absorbance at 405 nm was measured every 2 minutes up to 10 minutes by EnVision (PerkinElmer). The amount of change was obtained by subtracting the absorbance measured immediately after the start of the reaction from the absorbance measured 10 min after the start of the reaction.
MAGL inhibitory rate (%) was calculated according to the following calculation formula. (1−(absorbance change amount of test compound addition group−absorbance change amount of enzyme addition-free group)[…](absorbance change amount of test compound addition-free group−absorbance change amount of enzyme addition-free group))×100
One may read the inhibition as the change of the read-out against control, counted positive when it falls. For `N#Cc1cccnc1N1CCN(C2CC(=O)N(c3ccc(Oc4ccccc4)cc3)C2)CC1` (centres unmarked) [Example 7, 2-(4-(5-Oxo-1-(4-phenoxyphenyl)pyrrolidin-3-yl)piperazin-1-yl)nicotinonitrile], testing at 10 µM gave an inhibition of 87%. Turning to `O=C(c1ccc(Cl)o1)N1CCN(C2CC(=O)N(c3ccc(Oc4ccccc4)cc3)C2)CC1` (centres unmarked) [Example 8, 4-(4-(5-chloro-2-furoyl)piperazin-1-yl)-1-(4-phenoxyphenyl)pyrrolidin-2-one], 10 µM produced 93% inhibition.

Compound `O=C(c1nccs1)N1CCN(C2CC(=O)N(c3ccc(Oc4ccc(F)c(F)c4)cc3)C2)CC1` (centres unmarked) [Example 12, 1-(4-(3,4-difluorophenoxy)phenyl)-4-(4-(1,3-thiazol-2-ylcarbonyl)piperazin-1-yl)pyrrolidin-2-one] showed an inhibition at 10 µM of 98%. Same read-out and setting: the figure for `COc1cc(Oc2ccccc2)ccc1N1CC(N2CCN(C(=O)c3nccs3)CC2)CC1=O` (centres unmarked) [Example 13, 1-(2-Methoxy-4-phenoxyphenyl)-4-(4-(1,3-thiazol-2-ylcarbonyl)piperazin-1-yl)pyrrolidin-2-one] is 98%; for `O=C(c1nccs1)N1CCN(C2CC(=O)N(c3ccc4c(ccn4-c4ccc(F)cc4)c3)C2)CC1` (centres unmarked) [Example 14, 1-(1-(4-Fluorophenyl)-1H-indol-5-yl)-4-(4-(1,3-thiazol-2-ylcarbonyl)piperazin-1-yl)pyrrolidin-2-one] it is 98%. Still for that read-out and setting: the figure for `O=C(c1nccs1)N1CCN(C2CC(=O)N(c3ccc(Oc4ccccc4)cn3)C2)CC1` (centres unmarked) [Example 18, 1-(5-phenoxypyridin-2-yl)-4-(4-(1,3-thiazol-2-ylcarbonyl)piperazin-1-yl)pyrrolidin-2-one] is 96%; for `O=C(c1nccs1)N1CCN(C2CC(=O)N(c3ccc(Oc4ccncc4)cc3)C2)CC1` (centres unmarked) [Example 19, 1-(4-(pyridin-4-yloxy)phenyl)-4-(4-(1,3-thiazol-2-ylcarbonyl)piperazin-1-yl)pyrrolidin-2-one] it is 91%; for `O=C(c1nccs1)N1CCN(C2CC(=O)N(c3ccc4ccn(-c5ccc(F)cc5)c4c3)C2)CC1` (centres unmarked) [Example 20, 1-(1-(4-fluorophenyl)-1H-indol-6-yl)-4-(4-(1,3-thiazol-2-ylcarbonyl)piperazin-1-yl)pyrrolidin-2-one] it is 93%. The compound `O=C(N1CCCC1)N1CCN(C2CC(=O)N(c3ccc(Oc4ccccc4)cc3)C2)CC1` (centres unmarked) [Example 21, 1-(4-Phenoxyphenyl)-4-(4-(pyrrolidin-1-ylcarbonyl)piperazin-1-yl)pyrrolidin-2-one] gave an inhibition at 10 µM of 69%. On the same count and under the same terms, to `COc1ccc(Oc2ccc(N3CC(N4CCN(C(=O)c5nccs5)CC4)CC3=O)cc2)cc1` (centres unmarked) [Example 22, 1-(4-(4-methoxyphenoxy)phenyl)-4-(4-(1,3-thiazol-2-ylcarbonyl)piperazin-1-yl)pyrrolidin-2-one] belongs 97%; to `O=C(c1cocn1)N1CCN(C2CC(=O)N(c3ccc(Oc4ccccc4)cc3)C2)CC1` (centres unmarked) [Example 36, 4-(4-(1,3-oxazol-4-ylcarbonyl)piperazin-1-yl)-1-(4-phenoxyphenyl)pyrrolidin-2-one], 95%.

Consider `O=C(c1nccs1)N1CCN(C2CC(=O)N(c3ccc(Cc4ccccc4)cc3)C2)CC1` (centres unmarked) [Example 38, 1-(4-benzylphenyl)-4-(4-(1,3-thiazol-2-ylcarbonyl)piperazin-1-yl)pyrrolidin-2-one], for which the inhibition at 10 µM turned out to be 99%. As for `COc1cccc(Oc2ccc(N3CC(N4CCN(C(=O)c5nccs5)CC4)CC3=O)cc2)c1` (centres unmarked) [Example 44, 1-(4-(3-methoxyphenoxy)phenyl)-4-(4-(1,3-thiazol-2-ylcarbonyl)piperazin-1-yl)pyrrolidin-2-one], the inhibition at 10 µM came out at 97%. On the same count and under the same terms, the figure for `COc1ccccc1Oc1ccc(N2CC(N3CCN(C(=O)c4nccs4)CC3)CC2=O)cc1` (centres unmarked) [Example 45, 1-(4-(2-methoxyphenoxy)phenyl)-4-(4-(1,3-thiazol-2-ylcarbonyl)piperazin-1-yl)pyrrolidin-2-one] is 97%; for `O=C(c1nccs1)N1CCN(C2CC(=O)N(c3ccc4[nH]ncc4c3)C2)CC1` (centres unmarked) [Example 47, 1-(1H-indazol-5-yl)-4-(4-(1,3-thiazol-2-ylcarbonyl)piperazin-1-yl)pyrrolidin-2-one] it is 96%.

Regarding `O=C(c1nccs1)N1CCN(C2CC(=O)N(c3cnc4c(ccn4-c4ccc(F)cc4)c3)C2)CC1` (centres unmarked) [Example 51, 1-(1-(4-fluorophenyl)-1H-pyrrolo[2,3-b]pyridin-5-yl)-4-(4-(1,3-thiazol-2-ylcarbonyl)piperazin-1-yl)pyrrolidin-2-one], at 10 µM the inhibition was 97%.

Consider `O=C(c1nccs1)N1CCN(C2CC(=O)N(c3ccc4c(ccn4-c4ncc(C(F)(F)F)cn4)c3)C2)CC1` (centres unmarked) [Example 52, 4-(4-(1,3-Thiazol-2-ylcarbonyl)piperazin-1-yl)-1-(1-(5-(trifluoromethyl)pyrimidin-2-yl)-1H-indol-5-yl)pyrrolidin-2-one], for which the inhibition at 10 µM was determined as 97%. In the case of `O=C(c1nccs1)N1CCN(C2CC(=O)N(c3ccc4c(ccn4-c4ccc(C(F)(F)F)cn4)c3)C2)CC1` (centres unmarked) [Example 53, 4-(4-(1,3-Thiazol-2-ylcarbonyl)piperazin-1-yl)-1-(1-(5-(trifluoromethyl)pyridin-2-yl)-1H-indol-5-yl)pyrrolidin-2-one], 10 µM produced 98% inhibition. The same measure, in the same setting: the figure for `O=C(c1nccs1)N1CCN(C2CC(=O)N(c3ccc(C4CC4)cc3)C2)CC1` (centres unmarked) [Example 57, 1-(4-Cyclopropylphenyl)-4-(4-(1,3-thiazol-2-ylcarbonyl)piperazin-1-yl)pyrrolidin-2-one] is 90%; for `O=C(c1nccs1)N1CCN(C2CC(=O)N(c3ccccc3OCc3ccccc3)C2)CC1` (centres unmarked) [Example 58, 1-(2-(benzyloxy)phenyl)-4-(4-(1,3-thiazol-2-ylcarbonyl)piperazin-1-yl)pyrrolidin-2-one] it is 97%; for `O=C(c1nccs1)N1CCN(C2CC(=O)N(c3ccc(OCc4ccccc4)cc3)C2)CC1` (centres unmarked) [Example 60, 1-(4-(Benzyloxy)phenyl)-4-(4-(1,3-thiazol-2-ylcarbonyl)piperazin-1-yl)pyrrolidin-2-one] it is 98%. Same read-out and setting: the figure for `O=C(c1nccs1)N1CCN(C2CC(=O)N(c3ccc(-c4ccc(Cl)cc4)cc3)C2)CC1` (centres unmarked) [Example 63, 1-(4′-chlorobiphenyl-4-yl)-4-(4-(1,3-thiazol-2-ylcarbonyl)piperazin-1-yl)pyrrolidin-2-one] is 95%.

The same test, now with this note: 10 μM test compound; substrate p-nitrophenyl acetate, absorbance at 405 nm; 10 µM.
As usually defined, the Inhibition is the change of the read-out against control, counted positive when it falls. A high value points to a strong effect. Consider `O=C(c1nccs1)N1CCN(C2CC(=O)N(c3ccc4c(ccn4-c4ccc(F)cc4)c3)C2)CC1` (stereo not drawn) [Example 23, 1-(1-(4-Fluorophenyl)-1H-indol-5-yl)-4-(4-(1,3-thiazol-2-ylcarbonyl)piperazin-1-yl)pyrrolidin-2-one (optical isomer)], for which the “Inhibition at 10 μM (%)” value was 99%.
